This note sets out measurements from paper PMC10706071, “Simultaneous Improvement in the Thermostability and Catalytic Activity of Epoxidase Lsd18 for the Synthesis of Lasalocid A” (International Journal of Molecular Sciences, 2023).

What all share (type): binding
Assay [1] deals with T1, Lsd18 (Streptomyces lasalocidi, UniProt B5M9L6).
T1 construct: full-length gene in pCold (NdeI/EcoRI), E. coli BL21(DE3) with chaperone plasmid pG-KJE8, Ni beads and gel filtration; reductively ethylated for crystals only
T1 sequence (B5M9L6 1-472): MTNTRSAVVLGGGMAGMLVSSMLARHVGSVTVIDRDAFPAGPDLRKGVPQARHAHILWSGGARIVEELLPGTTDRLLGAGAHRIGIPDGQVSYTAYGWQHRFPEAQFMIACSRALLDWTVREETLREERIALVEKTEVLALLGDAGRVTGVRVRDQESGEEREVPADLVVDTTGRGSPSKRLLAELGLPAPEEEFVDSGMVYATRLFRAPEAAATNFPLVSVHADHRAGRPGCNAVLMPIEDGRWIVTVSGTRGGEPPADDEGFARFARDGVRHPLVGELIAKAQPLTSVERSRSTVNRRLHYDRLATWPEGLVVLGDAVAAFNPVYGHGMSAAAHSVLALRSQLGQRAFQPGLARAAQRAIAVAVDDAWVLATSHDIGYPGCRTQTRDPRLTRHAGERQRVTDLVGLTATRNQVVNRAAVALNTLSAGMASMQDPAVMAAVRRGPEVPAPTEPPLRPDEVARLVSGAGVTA
Put plainly: bound FAD released by heating ([…] °C, […] min), absorbance at […] nm. To be noted: co-purified FAD; 20 mM Tris pH 8.5, 150 mM NaCl.

In assay [2] the target is T2, Lsd18 (Streptomyces lasalocidi, UniProt B5M9L6, S179M).
T2 construct: full-length gene in pCold (NdeI/EcoRI), E. coli BL21(DE3) with chaperone plasmid pG-KJE8, Ni beads and gel filtration; reductively ethylated for crystals only
T2 sequence (B5M9L6 whole entry S179M): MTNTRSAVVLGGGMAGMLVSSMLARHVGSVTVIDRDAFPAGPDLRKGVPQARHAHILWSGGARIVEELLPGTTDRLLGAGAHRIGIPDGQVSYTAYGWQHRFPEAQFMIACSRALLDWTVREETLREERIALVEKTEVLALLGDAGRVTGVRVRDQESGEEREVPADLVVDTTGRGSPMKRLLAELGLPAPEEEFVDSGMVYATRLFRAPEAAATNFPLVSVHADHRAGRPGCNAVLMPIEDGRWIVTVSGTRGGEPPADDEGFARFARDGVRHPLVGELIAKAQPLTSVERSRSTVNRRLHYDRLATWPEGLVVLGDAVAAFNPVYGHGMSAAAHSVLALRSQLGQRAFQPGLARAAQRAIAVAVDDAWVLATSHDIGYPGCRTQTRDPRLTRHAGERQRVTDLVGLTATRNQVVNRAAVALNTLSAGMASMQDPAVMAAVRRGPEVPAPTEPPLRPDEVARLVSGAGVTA
Put plainly: bound FAD released by heating, absorbance at […] nm. Particulars: co-purified FAD; 20 mM Tris pH 8.5, 150 mM NaCl.

Assay [3] concerns the target T3, Lsd18 (Streptomyces lasalocidi, UniProt B5M9L6, T173M).
T3 construct: full-length gene in pCold (NdeI/EcoRI), E. coli BL21(DE3) with chaperone plasmid pG-KJE8, Ni beads and gel filtration; reductively ethylated for crystals only
Put plainly: bound FAD released by heating, absorbance at […] nm. Particulars: co-purified FAD; 20 mM Tris pH 8.5, 150 mM NaCl.

Assay [4] concerns the target T4, Lsd18 (Streptomyces lasalocidi, UniProt B5M9L6, T173M/S179M).
T4 construct: full-length gene in pCold (NdeI/EcoRI), E. coli BL21(DE3) with chaperone plasmid pG-KJE8, Ni beads and gel filtration; reductively ethylated for crystals only
The assay can be described thus: X-ray crystal structure ([…] Å); FAD content by absorbance at […] nm. Particulars: co-purified FAD; reductively ethylated protein for crystals.

SMILES strings stand for the structures.

T4 sequence (B5M9L6 whole entry T173M/S179M): as the sequence (B5M9L6 whole entry S179M) above, with T173M counted along it
T3 sequence (B5M9L6 whole entry T173M): as the sequence (B5M9L6 whole entry S179M) above, with T173M, M179S counted along it

Regarding `Cc1cc2nc3c(=O)[nH]c(=O)nc-3n(C[C@H](O)[C@H](O)[C@H](O)COP(=O)(O)OP(=O)(O)OC[C@H]3O[C@@H](n4cnc5c(N)ncnc54)[C@H](O)[C@@H]3O)c2cc1C` [FAD], the FAD content entry on Lsd18 [1] is given as “the yellower the color of Lsd18 (attributed to bound FAD), the more stable it was”; on Lsd18 [2] it was “the FAD content in the mutants Lsd18-T189M, Lsd18-S195M, Lsd18-T189M-S195M increased”; at Lsd18 [3], “the FAD content in the mutants Lsd18-T189M, Lsd18-S195M, Lsd18-T189M-S195M increased”. In addition, the “X-ray crystal structure (3.76 Å); FAD content by absorbance at 451 nm” value at Lsd18 [4] was “M189 forms a hydrogen bond with the cofactor FAD that could stabilize the binding”.
